From patent US10197557B2, “Small molecules for endothelial cell activation” (The Regents of the University of California, priority 2011, dated 2019)
Entries after “also recorded” stand apart in the source; their conditions may differ.

What was measured:
human endothelial cells = assay: EC-PBMC co-culture assay, chemokines quantified by cytometric bead arrays; format: cell-based; details: for EC activation of octahydro-1,6-naphthyridin-4-one analogs (percent induction relative to IFNγ): focused library of 96 analogs, initial test (FIG. 6A, 6B)
Experimental: FIGS. 9A-9C show a further embodiment of the invention biological platform for the detection of activated endothelium. (A) Primary endothelial cells were seeded to confluence in a 96 well format and activated by IFNγ (10 ng/ml). After 5 hours, IFNγ was removed, wells were washed, and then primary human peripheral blood mononuclear cells (PBMC) were added at a ratio of 3:1 (PBMC:EC). 20-24 hours later, supernatants were removed and chemokines were quantified by cytometric bead arrays. (B) MIP1β production, but not MIP1α or IL8 levels, reliably detects endothelium activated by IFNγ. Chemokines produced in co-culture conditions with quiescent vs. activated EC; data represent the results from n=7 (MIP1α and MIP1β) and n=6 (IL8) independent experiments. (C) Chemical library screen for compounds that activate human endothelium. A 642 compound library was added following the same method as in A and B. Controls included DMSO and IFNγ on each plate. Supernatants were measured for chemokines by cytometric bead arrays.
Activation of the endothelium is intricately linked to innate immunity. […] Therefore we hypothesized that compounds that “activate” the endothelium could be identified indirectly—endothelium encountering activating compounds would gain the capacity to trigger chemokine production by monocytes. To test this hypothesis, we designed an EC-monocyte co-culture system amenable to high-throughput compound screening (FIG. 9A). […] Subsequently, EC were treated with DMSO (vehicle control), IFNγ (EC-activation control), and a collection of 642 compounds (final concentration, […]) (FIG. 9C). Of the 642 compounds, 37 (5.8%) promoted MIP1β production (FIG. 5A).
HUVEC were grown to 80-90% confluency in T150 flasks (Corning). On the day of experiments, HUVEC were harvested and plated at a confluent density in 96 well plates; these were either half or full volume plates, requiring 2.5-5×10^4 EC per well, respectively, in complete EBM-2 media (Lonza). After adherence for 2-3 hours, IFNγ (10 ng/ml), DMSO, or compound library (final concentration, […]) was added in incomplete EBM-2 media (Lonza). After 5 hours, stimuli were removed and cells were gently washed twice with RPMI (Invitrogen), followed by addition of 7.5-10×10^4 human PBMC in 10% FCS. For cytokine analysis, […] was removed at 24 hours for CBA analysis. The biological effects observed were not attributable to either LPS contamination, nor to cellular toxicity, as determined by flow cytometric analysis and 3-(4,5-dimethylhiazol-2-yl)-2,5-diphenyl tetrazolium bromide (MTT) assay.
[…] of supernatant from EC alone, PBMC alone, or co-culture conditions was collected for CBA analysis for IL8, MIP1α, and MIP1β. CBA was performed as per the manufacturer's recommendations (Becton Dickinson). Standard curves and all samples were acquired on a FacsCalibur flow cytometer and data was analyzed using FloJo software.

HUVEC = assay: Transcriptome profiling (microarray) of treated EC, Ingenuity Pathway Analysis; format: cell-based, human; details: 10 μM, 5 hours; for gene probes induced in comparison to vehicle control: fold change >1.25, p-value <0.05
Experimental: HUVEC were grown as described above, and then plated at 1×10^6 in 6 well plates in complete EBM-2. […] After 5 hours, media was removed and RNA was extracted using Trizol (Invitrogen), followed by RNeasy Minelut Cleanup Kit (Qiagen). RNA was taken to the UCLA Microarray Core Center where it was processed using the Human Genome Affymetrix U133 Plus 2.0 Array. Microarray data was analyzed using dChip software (version Nov. 18, 2007) from the Cheng Li Lab at http://biosun1.harvard.edu/complab/dchip. For statistical analysis using dChip software, only gene probes that were minimally present in two of the three replicates were used, and parameters for significance were set at fold change >1.25, p-value <0.05. Total number of probes present for active analogue (D10): 30,228. […] Unsupervised dendrograms were created using dChip software. Genes with known function in immune regulation were selected based on published databases and gene functions identified by Gene Ontology or OMIM; dendrogram was created using dChip software.
Experimental results were compared using student t-tests; results were considered significant if p-value was <0.05. Canonical network analysis for all expressed probes in D10 and E2 datasets was performed by using Ingenuity Pathway Analysis software (version 6.0; Ingenuity Systems).

E-selectin = E-selectin expression on EC by flow cytometric analysis; format: cell-based, human; details: in comparison to vehicle control (FIG. 8C)
Experimental: (§1) HUVEC were stimulated with IFNγ, DMSO, or compounds of interest (10 μM) for 5 hours. Stimuli were removed and cells were gently washed and media was replaced with 10% FCS for 24 hours. Cells were stained with anti-ICAM1 and anti-E-selectin, or appropriate isotype antibodies. For intracellular chemokine staining, stimulations of HUVEC were carried out as mentioned above with IFNγ, DMSO and compound of interest. After 8 hours of PBMC and HUVEC co-culture incubation, Golgi Plug (Becton Dickinson) was added to the culture and incubation carried out for an additional 16 hours. After the incubation cells were fixed, permeabilized and stained with anti-CD14 and anti-MIP1b or appropriate isotype controls. Samples were then analyzed with a FacsCalibur flow cytometer and subsequent data analysis was performed using FloJo software.

MIP1β = assay: Intracellular flow cytometry of EC-PBMC co-cultures (CD14, MIP1β); format: cell-based, human; details: PBMC added to activated EC (FIG. 5D)
Experimental: as §1

| Compound | EC activation of octahydro-1,6-naphthyridin-4-one analogs (percent induction relative to IFNγ) (human endothelial cells) | other results |
| --- | --- | --- |
| Cc1ccc(S(=O)(=O)N2[C@H](c3ccccc3)CC(=O)[C@@H]3CN(S(C)(=O)=O)[C@H](c4ccccc4)C[C@@H]32)cc1 [2B2] | lost their activity; also recorded: inactive |  |
| Cc1ccc(S(=O)(=O)N2C[C@H]3[C@@H](O)C[C@@H](c4ccccc4)N(S(=O)(=O)c4ccc(C)cc4)[C@H]3C[C@H]2c2cccc(Cl)c2)cc1 [2B6] | active |  |
| CCO[C@H]1C[C@@H](c2ccccc2)N(S(=O)(=O)c2ccc(C)cc2)[C@H]2C[C@@H](c3cccc(Cl)c3)N(S(=O)(=O)c3ccc(C)cc3)C[C@@H]12 [2B7] | active |  |
| Cc1ccc([C@@H]2C[C@H]3[C@@H](CN2S(=O)(=O)c2ccccc2)C(=O)C[C@@H](c2ccccc2)N3S(=O)(=O)c2ccc(C)cc2)cc1 [C8] | active |  |
| COc1ccc([C@@H]2C[C@H]3[C@@H](CN2S(=O)(=O)c2ccccc2)C(=O)C[C@@H](c2ccc(C)cc2)N3S(=O)(=O)c2ccc(C)cc2)cc1 [C9] | active |  |
| COc1ccc([C@@H]2CC(=O)[C@@H]3CN(S(=O)(=O)c4ccc(C)cc4)[C@H](c4ccccc4)C[C@@H]3N2S(=O)(=O)c2ccccc2)cc1 [D5] | did not exhibit EC-activation; also recorded: inactive |  |
| Cc1ccc([C@@H]2C[C@H]3[C@@H](CN2S(=O)(=O)c2ccc(C)cc2)C(=O)C[C@@H](c2ccc(C)cc2)N3S(=O)(=O)c2ccc(C)cc2)cc1 [D6] | active |  |
| COc1ccc([C@@H]2CC(=O)[C@@H]3CN(S(=O)(=O)c4ccc(C)cc4)[C@H](c4ccc(C)cc4)C[C@@H]3N2S(=O)(=O)c2ccccc2)cc1 [D9] | did not exhibit EC-activation; also recorded: inactive |  |
| CCc1ccc([C@@H]2C[C@H]3[C@@H](CN2S(=O)(=O)c2ccc(C)cc2)C(=O)C[C@@H](c2ccc(CC)cc2)N3S(=O)(=O)c2ccc(C)cc2)cc1 [D10] | active | gene probes induced in comparison to vehicle control (HUVEC; EC): 201 gene probes; canonical pathways engaged (Ingenuity Pathway Analysis) (HUVEC; induced genes of EC): 32 canonical pathways; E-selectin gene induction (HUVEC; microarray, EC): uniquely induced; E-selectin expression levels (protein) (E-selectin): markedly enhanced |
| CCc1ccc([C@@H]2C[C@H]3[C@@H](CN2S(=O)(=O)c2ccc(C)cc2)C(=O)C[C@@H](c2ccc(Cl)cc2)N3S(=O)(=O)c2ccc(C)cc2)cc1 [D11] | active |  |
| CCc1ccc([C@@H]2C[C@H]3[C@@H](CN2S(=O)(=O)c2ccc(C)cc2)C(=O)C[C@@H](c2ccc(OC)cc2)N3S(=O)(=O)c2ccccc2)cc1 [E2] | some activity; also recorded: inactive | EC activation, confirmatory studies (human endothelial cells; validation of analogs, FIG. 6C, two independent experiments in triplicate wells): relatively inactive; gene probes induced in comparison to vehicle control (HUVEC; EC): 49 gene probes; networks related to immune regulation activated (HUVEC; induced genes of EC): did not activate any networks related to immune regulation |
| Cc1ccc(S(=O)(=O)N2C[C@H]3C(=O)C[C@@H](c4ccccc4)N(S(=O)(=O)c4ccc(C)cc4)[C@H]3C[C@H]2c2ccccc2F)cc1 [E3] | active |  |
| COc1ccc([C@@H]2CC(=O)[C@@H]3CN(S(=O)(=O)c4ccc(C)cc4)[C@H](c4ccccc4F)C[C@@H]3N2S(=O)(=O)c2ccccc2)cc1 [E8] | did not exhibit EC-activation; also recorded: inactive |  |
| COc1ccc([C@@H]2CC(=O)[C@@H]3CN(S(=O)(=O)c4ccc(Cl)cc4)[C@H](c4ccc(C)cc4)C[C@@H]3N2S(=O)(=O)c2ccccc2)cc1 [F7] | did not exhibit EC-activation; also recorded: inactive |  |
| COc1ccc([C@@H]2C[C@H]3[C@@H](CN2S(=O)(=O)c2ccccc2)C(=O)C[C@@H](c2ccc(OC)cc2)N3S(=O)(=O)c2ccccc2)cc1 [F10] | did not exhibit EC-activation; also recorded: inactive |  |
| CCOc1cc(-c2ccccc2)nc2c1CN(S(=O)(=O)c1ccc(C)cc1)[C@H](c1cccc(Cl)c1)C2 [G9] | inactive |  |
| Cc1ccc(S(=O)(=O)N2CC[C@H]3[C@@H](C2)C(=O)C[C@@H](c2ccccc2)N3S(=O)(=O)c2ccc(C)cc2)cc1 [H6] | did not affect the naphthyridinone's EC-activation; also recorded: active |  |
| Cc1ccc(S(=O)(=O)N2C[C@H]3C(=O)C[C@@H](c4ccccc4)N(S(C)(=O)=O)[C@H]3C[C@H]2c2ccccc2)cc1 [H11] | lost their activity; also recorded: inactive |  |
| interferon gamma [IFNγ] |  | MIP1α production in co-culture (human endothelial cells; treated EC co-cultured with PBMC (FIG. 10B)): comparable levels; IL8 production from monocytes in co-culture (human endothelial cells; treated EC co-cultured with PBMC, in comparison to DMSO (FIG. 10A)): inhibited; dominant producers of MIP1β in co-culture (MIP1β): CD14+ monocytes |
